Measured values published in patent US10035780B2, “Quinazoline scaffold based compounds, pharmaceutical compositions and methods of use thereof” (TECHNION RESEARCH & DEVELOPMENT FOUNDATION LTD., priority 2014, dated 2018).
Entries after “also recorded” stand apart in the source; their conditions may differ. Where two headings read alike, the source gives them in different places.

Columns and labels:
TSPO = TSPO (Homo sapiens (Human), UniProt P30536); assay type: binding
Method: Briefly, the assay utilizes radioactive standard ligand [^3H] PK 11195 (1-(2-chlorophenyl)-N-methyl-N-(1-methyl-propyl)-3 isoquinolinecarboxamide), and measures the ability of the compounds of the invention to displace standard ligand in binding to TSPO. Total radioactive binding was determined by measuring the radioactivity of the radioactive ligand-receptor complex, obtained in the reaction of radioactive standard with the TSPO. Radioactive standard and the examined compound were added to the TSPO and after some incubation time the radioactivity of the resulting ligand-receptor complexes was measured with the help of a […]. This radioactivity indicates the binding of the radioactive standard to TSPO. […] This can be expressed as the half maximal inhibitory concentration (IC50), which is a measure of the effectiveness of a compound in inhibiting biological or biochemical function, in this case inhibiting binding of standard radioactive ligand binding to the TSPO. A derivative of the IC50 is the Ki, which is the calculated binding affinity of the novel compound to the TSPO.
Binding to TSPO was evaluated using a [^3H]PK 11195 radio-assay, as described above.

U118MG cells [1] = test: Protection against cell death induced by glutamate in U118MG cell culture; assay type: cell-based, human; details: for protection against cell death induced by glutamate: U118MG cells, 35 mM glutamate, compound 1-100 μM; for Protection against glutamate-induced cell death: cell culture, grade in words; for lethal effects of compound at high concentration: 100 μM compound alone; for lethal effects of compound at high concentration / cell death effect of glutamate at high compound concentration: halogenated vs unhalogenated analog; for cell death effect of glutamate at high compound concentration: glutamate plus 100 μM compound
Method: Cell cultures of various human glial type cell lines (T98G, U87MG, A172, U118MG), as well as human neuronal type cell lines SH-SY 5Y and Be(2)-C were used to test the new compounds. In addition, the rat glioma cell line C6 was used. PC12 cells originating from rats were used as another cell line displaying neuronal characteristics. The applicants also have produced, by genetic manipulation, a modified rat C6 glial cell strain and a modified human U118MG glial type cell strain, both under-expressing the TSPO, which allows to study TSPO specific effects, including of the compounds of the invention, which can be done according to methods described previously (Weisinger et al. Biochemistry. 2004; 43:12315-21; Levin et al. 2005; Zeno et al., 2009).
The protective capabilities of the compounds of the invention and involvement of the TSPO were tested in cell culture, using cell lines of glial and neuronal type, cultured and testing according to standard methods (Kugler et al. 2008; Zeno et al. 2009; Dadon-Nachum et al. Stem Cell Rev. 2011; 7:664-71). Furthermore, primary cell cultures are also used (Banker, G. et al. Culturing Nerve Cells, 2nd Edition, The MIT Press (1998). Treatments included: (1) exposure to glutamate (35 mM), Abeta(1-42), NH4Cl, CoCl2, and nitric oxide (NO) donors, in order to mimic particular aspects of neurodegeneration; (2) treatment with the novel compounds and with traditional TSPO ligands as comparative treatment; and (3) TSPO knockdown by genetic manipulation.
(§1) Techniques and parameters assayed are summarized here: Total protein levels (Bradford. Anal Biochem. 1976; 72:248-54); TSPO ligand binding assays (Kugler et al. 2008; Levin et al. 2005; Danovich et al. Eur Neuropsychopharmacol. 2008; 18:24-33) cell death, including apoptosis and necrosis and related molecular biological processes (Soustiel et al. Neuropathol Appl Neurobiol. 2008; 34:412-23; Soustiel et al. Exp Neurol. 2008; 214:201-8; Zeno et al. 2009); mitochondrial transmembrane potential collapse (Chelli et al. Biochem Pharmacol. 2004; 68:125-34; Kugler et al. 2008; Zeno et al., 2009; Shargorodsky et al. Apoptosis. 2012; 17:647-65), reactive oxygen species (ROS) generation as a measure of oxidative stress (Veenman et al. 2008; Zeno et al. 2009); TSPO knockdown (Levin et al. 2005; Zeno et al. 2009); expression levels of mitochondrial TSPO and associated proteins (Veenman et al. 2002; Levin et al. 2005; Veenman et al. 2008); gene expression with RT-PCR and microarray analysis (Bode et al. 2012; Veenman et al. 2012). Parameters of inflammation, immune response, migration, and the cell cycle are also tested. All these approaches can also be applied for quality control of the compounds.
The compounds of the invention protect against cell death induced by glutamate in cell culture of U118MG cells of astrocytic origin (FIGS. 1, 2, 3 and 8) or SH SY 6Y cells of neuronal origin (FIG. 4). […] In the control group, 35 mM of glutamate killed ˜60% of the cells.
The experimental setup is explained using FIG. 8B as an example: • 1. Control: Cell death levels are taken as 0% • 2. Glu: Cell death levels induced by glutamate are over 50% • 3. […] Glu+Cpd 5: When Cpd 5 is given as a treatment to counteract cell death induced by glutamate, increasing concentrations of Cpd 5 reduce cell death levels from over 50% to less than 5%.

R6-2 mice [2] = test: Lifespan of R6-2 mice, transgenic model for Huntington Disease; assay type: in vivo, mouse; details: for effect on lifespan: daily s.c. injections 5 days a week from week 5, vs DMSO and saline
Excerpt: For the assays described herein systemic injections of kainic in rats were applied and also contusion (Veenman et al. 2002; Soustiel et al. Neuropathol Appl Neurobiol. 2008; Soustiel et al. Exp Neurol. 2008). These models present very well defined cell death in the brain. Cell death in the brain is the major pathological characteristic of progressing neurodegeneration common to brain diseases. As the compounds of the present invention are designed to prevent cell death in the brain as a consequence of disease and progressing brain damage after injury, including behavioral impairments, animal models displaying cell death in the brain are the models of choice for displaying the protective capabilities of the compounds of the invention. For these reasons the R6-2 model for Huntington Disease was chosen to test the effectiveness of Compound 1 and to compare the effectiveness of Compound 1 with those of the compound of U.S. Pat. No. 8,541,428 (Cpd A) and with the classical TSPO ligand PK 11195, as well as other compounds disclosed herein. Compounds 5 and 6 were also tested in the same R6-2 model.
R6-2 is a transgenic mouse model for Huntington Disease. Huntington Disease in humans is a hereditary neurodegenerative disease affecting motor performance and finally leading to death of the patients having the disease. R6-2 mice (˜120 CAG repeats B6CBA-Tg(HDexon1)62 Gpb/3J) mice were used for the experiments described below. For this purpose, mice obtained from the Jackson Laboratory (ME) were bred. In particular: males genotype: Hemizygous for Tg(HDexon1)62 Gpb, and females from the wildtype background strain B6CBAF1/J were bred according to the protocol of Jackson Laboratory. The male heterozygote offspring (R6-2 mice) were used for determining life span and motor activity, with and without drug treatment. Drug treatment consisted of daily (5 continuous days a week) subcutaneous injections of mice with 20 μl of: saline (sham control), vehicle DMSO (vehicle control), classic TSPO ligand PK 11195 (15 mg/kg), prior art Compound A (15 mg/kg), Compound 1 (15 mg/kg), and compound 1 (7.5 mg/kg). Drug treatment started on week 5 after birth. Quantities were used according to previous studies regarding TSPO ligands.
(§2) Apart from the behavioral experiments, mice were observed daily, and the day of death was noted. Behavioral experiments included distance covered in an open field apparatus, and tremor measurements.
R6-2 mice were used as previously described in Example 5. In one experiment, treatment consisted of daily (5 continuous days per week) subcutaneous injections of mice with 20 μl of vehicle DMSO (control, n=10) and Compound 6 (7.5 mg/kg, n=12). In a separate experiment, compound 5 (7.5 mg/kg, n=5) was tested, compared to DMSO control (n=5).

R6-2 mice [3] = test: Incidence of tremor in R6-2 mice; assay type: in vivo, mouse
Excerpt: as §2
To assay incidence of tremor in R6-2 mice of the experiments for this invention, the StartleMonitor of Kinder Scientific (Poway, Calif.), with specific software to assay and present force pressure changes in newtons, was used.

U118MG cells [4] = test: Collapse of the mitochondrial membrane potential (ΔΨm) induced by glutamate; assay type: cell-based, human; details: glutamate exposed cells
Excerpt: as §1
Compound 1 is very effective at a concentration of 25 μM in this model (in order to achieve the same effect with the classical TSPO ligand PK 11195 a concentration of 50 μM has to be applied (data not shown).

[5] = displacement of [3H]PK 11195 from TSPO
[6] = binding affinity to the TSPO, unit given as nm

TSPO, sequence (P30536 whole entry): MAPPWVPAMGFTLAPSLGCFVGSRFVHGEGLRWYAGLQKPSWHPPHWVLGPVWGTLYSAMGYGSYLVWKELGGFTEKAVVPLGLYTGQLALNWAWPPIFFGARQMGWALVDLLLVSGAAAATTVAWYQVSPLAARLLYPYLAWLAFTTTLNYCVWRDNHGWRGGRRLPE

Structure (SMILES) | Ki (TSPO; [5]) | protection against cell death induced by glutamate (U118MG cells [1]) | Protection against glutamate-induced cell death (U118MG cells [1]) | effect on lifespan (R6-2 mice [2]) | also measured
CCN(CC)C(=O)Oc1nc(-c2ccc(F)c(Cl)c2)nc2ccccc12 [Compound 2, 2-(3-chloro-4-fluorophenyl)quinazolin-4-yl diethylcarbamate] | ~380 nM | strong protective properties | Good |  | protection against cell death induced by glutamate (U118MG cells [1]; listed as compound 2): protective properties
CCN(CC)C(=O)Oc1nc(-c2c(Cl)cccc2Cl)nc2ccccc12 [Compound 3, 2-(2,6-dichlorophenyl)quinazolin-4-yl diethylcarbamate] | ~1510 nM | good protective properties | Good |  | protection against cell death induced by glutamate (U118MG cells [1]; listed as compound 3): protective properties
CN(C)C(=O)Oc1nc(-c2ccccc2Cl)nc2ccccc12 [Compound 5, 2-(2-chlorophenyl)quinazolin-4-yl dimethylcarbamate] | ~600 nM | protect better and more consistently; also recorded: superior over the rest of the compounds | Excellent | increase the average lifespan; also recorded: extends the life span | lethal effects of compound at high concentration (U118MG cells [1]): reduces lethal effects; also recorded: reduces cell death effects; also recorded: least adverse side effects; protection against cell death induced by glutamate (U118MG cells [1]; listed as Cpd 5): improves protection; cell death levels induced by compound by itself (U118MG cells [1]; compound alone, no glutamate): ≤ 5%; cell death effect of glutamate at high compound concentration (U118MG cells [1]): reduces cell death effect of glutamate in cultures even further; cell death levels, Glu + compound (U118MG cells [1]; glutamate plus increasing concentrations of compound, glutamate alone over 50%): less than 5%; mice living up to 18 weeks (R6-2 mice [2]; 7.5 mg/kg s.c.): 20%; mice still alive at 11th week (R6-2 mice [2]; 7.5 mg/kg s.c., >50% of DMSO mice dead): 100%; mice still alive at 12 weeks (R6-2 mice [2]; 7.5 mg/kg s.c., all DMSO mice dead): 50%; effect on lifespan (R6-2 mice [2]; listed as compound 5): robust lifespan enhancing; incidence of tremor activity (R6-2 mice [3]): tremor reducing effects; also recorded: reduced the incidence of tremor activity
CCN(CC)C(=O)Oc1nc(-c2ccccc2)nc2ccccc12 [Compound 7, 2-phenylquinazolin-4-yl diethylcarbamate] | ~2.5 nM |  | Good |  | Ki (TSPO; [6]): ~2.5 nM
CCN(CC)C(=O)Oc1nc(-c2ccccc2Cl)nc2ccccc12 [Compound 8, 2-(2-chlorophenyl)quinazolin-4-yl diethylcarbamate] | ~2.5 nM | improves protection | Good |  | lethal effects of compound at high concentration (U118MG cells [1]): reduces lethal effects; lethal effects of compound at high concentration (U118MG cells [1]; listed as Cpd 8): reduces cell death effects; cell death effect of glutamate at high compound concentration (U118MG cells [1]): reduces cell death effect of glutamate in cultures even further
CN(C)C(=O)Oc1nc(-c2ccccc2)nc2ccccc12 [Compound A, reference compound] | ~600 nM | significantly less efficacious | Good | indistinguishable from vehicle treated mice; also recorded: had no such effects; also recorded: has no effect | Ki (TSPO; [6]): ~600 nM
CCC(C)N(C)C(=O)c1cc2ccccc2c(-c2ccccc2Cl)n1 (centres unmarked) [PK 11195, 1-(2-chlorophenyl)-N-methyl-N-(1-methyl-propyl)-3 isoquinolinecarboxamide, reference compound] |  |  |  | indistinguishable from vehicle; also recorded: had no such effects; also recorded: has no effect at all | concentration very effective in preventing ΔΨm collapse (U118MG cells [4]): 50 µM
